Laboratory results as given in patent US20240342186A1, “PYRIDINE DERIVATIVES WITH N-LINKED CYCLIC SUBSTITUENTS AS cGAS INHIBITORS” (Boehringer Ingelheim International GmbH, priority 2021, published 2024).
Where two headings read alike, the source gives them in different places.

Columns and labels:
[1] = tested on: cellular cGAS activity in baculovirus-stimulated THP1-Dual cells (IRF dependent Lucia luciferase reporter); test: Human cGAS cell assay: inhibition of IFN induction in virus-stimulated THP1 cells (THP1(vir) IC50); assay type: cell-based; details: Homo sapiens, THP1-Dual
Method in brief: (§1)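 THP1-Dual cells with IRF-dependent Lucia luciferase reporter, stimulated by empty baculovirus (dsDNA delivery activating cGAS) or, for the counter assay, directly by cGAMP. 5000 cells/well, 8 concentrations from 10 μM top, 1% DMSO, 18 h at 37 °C; luminescence read, IC50 by 4-parameter logistic fit versus unstimulated low control.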

cGAS [2] = target: T1, cGAS (Homo sapiens (Human), UniProt Q8N884); details: groups of page 44/45 of WO 2020/142729; read-out: biochemical (in vitro) IC50 group; cited from earlier work
T1 sequence (Q8N884 whole entry): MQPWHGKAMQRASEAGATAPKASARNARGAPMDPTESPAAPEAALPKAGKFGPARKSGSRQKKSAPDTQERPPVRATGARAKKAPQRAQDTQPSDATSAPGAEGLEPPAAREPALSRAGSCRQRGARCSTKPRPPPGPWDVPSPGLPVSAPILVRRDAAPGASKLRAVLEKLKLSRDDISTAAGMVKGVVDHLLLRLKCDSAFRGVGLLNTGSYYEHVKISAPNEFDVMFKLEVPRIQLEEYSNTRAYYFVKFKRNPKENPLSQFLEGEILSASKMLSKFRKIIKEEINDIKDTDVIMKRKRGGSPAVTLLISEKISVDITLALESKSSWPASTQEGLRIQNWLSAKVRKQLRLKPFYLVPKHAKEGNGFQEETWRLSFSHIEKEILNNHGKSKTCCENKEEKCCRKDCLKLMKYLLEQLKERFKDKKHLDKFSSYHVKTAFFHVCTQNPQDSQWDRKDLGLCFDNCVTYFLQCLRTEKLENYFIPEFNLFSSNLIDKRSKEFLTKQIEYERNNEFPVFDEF

[3] = tested on: cGAMP-stimulated THP1-Dual cells (pathway directly downstream of cGAS); test: cGAMP stimulated counter cell assay: inhibition of IFN induction in cGAMP-stimulated THP1 cells (THP1(cGAMP) IC50); assay type: cell-based, human; details: for IC50: read-out: THP1(cGAMP) IC50 (converted); for Ratio THP1(cGAMP) IC50 / THP1(vir) IC50: selectivity for cGAS inhibition
Method in brief: as §1

[4] = tested on: cellular cGAS activity in dsDNA-stimulated human whole blood; test: Human whole blood assay (hWB IC50): IFNα2α production after dsDNA transfection; assay type: cell-based; details: inhibition of IFN induction in dsDNA-stimulated human whole blood
Method in brief: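 Citrated blood from healthy donors preincubated 60 min at room temperature with compound (top 10 µM, ~1:5 steps, 0.1% DMSO), then transfected with dsDNA/Fugene and incubated 22 h at 37 °C. Plasma IFNα2α measured by MSD immunoassay; IC50 from 4-parameter fit of % control (stimulated vs unstimulated).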

cGAS [5] = target: T1, cGAS; test: Human cGAS enzyme assay (hcGAS IC50, in vitro), cGAMP formation by RapidFire MS; assay type: biochemical; details: biochemical (in vitro) cGAS inhibition;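 also: enzyme activated by 45 bp dsDNA with GTP and ATP (30 µM each), 60 min compound pre-incubation then 90 min reaction, cGAMP relative to cyclic-di-GMP internal standard, 8-point dilutions up to 10 µM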
[6] = Homo sapiens, THP1-Dual, inhibition of IFN induction in cGAMP-stimulated THP1 cells
[7] = inhibition of IFN induction in virus-stimulated THP1 cells, read-out: THP1(vir) IC50

Row | Compound | IC50 ([1]; virus-stimulated THP1 cells, read-out: THP1(vir) IC50) [nM] | IC50 [4] [nM] | IC50 (cGAS [5]) [nM] | IC50 [1, 7] [nM] | IC50 (cGAS [2]) [nM] | IC50 ([3]; Homo sapiens, THP1-Dual, cGAMP-stimulated THP1 cells, counter assay) [nM] | IC50 ([1]; read-out: THP1(vir) IC50, inhibition of IFN induction in virus-stimulated THP1 cells) [nM] | IC50 ([1]; read-out: THP1(vir) IC50, virus-stimulated THP1 cells, IFN induction) [nM] | IC50 [3, 6] [nM] | IC50 ([3]; cGAMP-stimulated THP1 cells, counter assay) [nM] | Ratio THP1(cGAMP) IC50 / THP1(vir) IC50 [3]
1 | Cc1nc(N2C[C@@H](Cc3nn[nH]n3)C[C@H]2C(=O)O)c2oc3ccccc3c2n1 [Example 25, reference compound] | 17000 | – | – | – | < 100 | > 17000 | – | – | – | – | –
2 | C[C@@H]1N(c2cccnc2O[C@H]2C[C@@H](C(=O)O)N(c3nc(C(F)F)nc4c3oc3ccccc34)C2)CCOC12COC2 [Example 4.04, (2S,4S)-4-({3-[(9S)-9-methyl-2,5-dioxa-8-azaspiro[3.5]nonan-8-y]-pyridin-2-yl}-oxy)1-[4-(difluoro-methyl)-8-oxa-3,5-diazatricyclo[7.4.0.0^2.7]trideca-1(13),2,4,6,9,11-hexaen-6-yl]pyrrolidine-2-carboxylic acid] | – | 77 | 2 | – | – | – | 386 | 386 | > 16600 | > 16600 | >43
3 | C#Cc1cnc(O[C@H]2C[C@@H](C(=O)O)N(c3nc(C)nc4c3oc3cc(C(F)F)ccc34)C2)c(N2CCOC3(COC3)[C@@H]2C)c1 [Example 2.06] | – | 52 | 4 | 63 | – | – | – | – | 11900 | – | 189

More lines, main results first:

Row | IC50 ([1]; virus-stimulated THP1 cells, read-out: THP1(vir) IC50) [nM] | IC50 [4] [nM] | IC50 (cGAS [5]) [nM] | IC50 [1, 7] [nM] | Compound | IC50 (cGAS [2]) [nM] | IC50 ([3]; Homo sapiens, THP1-Dual, cGAMP-stimulated THP1 cells, counter assay) [nM] | IC50 ([1]; read-out: THP1(vir) IC50, inhibition of IFN induction in virus-stimulated THP1 cells) [nM] | IC50 ([1]; read-out: THP1(vir) IC50, virus-stimulated THP1 cells, IFN induction) [nM] | IC50 [3, 6] [nM] | IC50 ([3]; cGAMP-stimulated THP1 cells, counter assay) [nM] | Ratio THP1(cGAMP) IC50 / THP1(vir) IC50 [3]
4 | – | 475 | 10 | 583 | C[C@H]1COC[C@H](C)N1c1cc(Br)cnc1O[C@H]1C[C@@H](C(=O)O)N(c2nc(C(F)F)nc3c2oc2ccccc23)C1 [Example 1.26] | – | – | – | – | 9930 | – | 17
5 | – | 8450 | 7 | 399 | CC1(C#N)CN(c2cc(Cl)cnc2O[C@H]2C[C@@H](C(=O)O)N(c3nc(C(F)(F)F)nc4c3oc3ccccc34)C2)CCO1 (stereo partly shown) [Example 1.03] | – | – | – | – | 15100 | – | 38
